Test results taken from ChEMBL document CHEMBL4800722, “Data for DCP probe BI 605906” (2021).

Key:
[1] = biological target: Polyunsaturated fatty acid lipoxygenase ALOX12 (Homo sapiens) (UniProt P18054); details: Compound concentration 10.0 uM
[2] = biological target: Phosphatidylinositol 4-phosphate 3-kinase C2 domain-containing subunit beta (Homo sapiens) (UniProt O00750); details: Compound concentration 1.0 uM
[3] = biological target: Serine/threonine-protein kinase N2 (Homo sapiens) (UniProt Q16513); test: PRK2 DUNDEE kinase screen (BI); details: Compound concentration 10.0 uM
[4] = biological target: Serotonin 3 (5-HT3) receptor (Homo sapiens) (UniProt P46098+A5X5Y0+O95264+Q70Z44+Q8WXA8); test: 5HT3/HU Eurofins SafetyScreen44 (BI); assay type: protein-complex assay; details: Compound concentration 10.0 uM
[5] = biological target: Serine/threonine-protein kinase TAO1 (Homo sapiens) (UniProt Q7L7X3); test: TAOK1 Invitrogen Lab (UK) kinase screen (BI); details: Compound concentration 1.0 uM
[6] = biological target: Insulin receptor (Homo sapiens) (UniProt P06213)
[7] = biological target: Tyrosine-protein kinase Lck (Homo sapiens) (UniProt P06239); test: LCK Invitrogen Lab (UK) kinase screen (BI)
[8] = biological target: Insulin-like growth factor 1 receptor (Homo sapiens) (UniProt P08069)
[9] = biological target: Mitogen-activated protein kinase kinase kinase 14 (Homo sapiens) (UniProt Q99558); details: Compound concentration 1.0 uM
[10] = biological target: T1, Serine/threonine-protein kinase Chk1 (Homo sapiens) (UniProt O14757); test: CHK1 DUNDEE kinase screen (BI); details: Compound concentration 10.0 uM
T1 sequence (whole entry): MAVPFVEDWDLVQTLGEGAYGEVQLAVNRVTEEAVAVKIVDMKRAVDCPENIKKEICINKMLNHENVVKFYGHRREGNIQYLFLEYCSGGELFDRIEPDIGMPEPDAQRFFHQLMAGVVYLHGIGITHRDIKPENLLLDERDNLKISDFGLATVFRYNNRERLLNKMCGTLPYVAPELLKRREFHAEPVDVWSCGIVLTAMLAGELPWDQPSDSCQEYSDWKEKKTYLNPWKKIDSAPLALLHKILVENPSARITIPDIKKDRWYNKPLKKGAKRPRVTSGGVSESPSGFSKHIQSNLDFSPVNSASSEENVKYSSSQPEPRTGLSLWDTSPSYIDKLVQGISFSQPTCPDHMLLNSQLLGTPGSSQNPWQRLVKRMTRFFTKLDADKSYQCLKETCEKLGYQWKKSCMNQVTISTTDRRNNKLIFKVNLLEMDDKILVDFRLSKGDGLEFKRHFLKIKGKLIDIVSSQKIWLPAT

[11] = biological target: CDK2/Cyclin O (Homo sapiens) (UniProt P24941+P22674); test: CDK2/CYCLIN O Invitrogen Lab (UK) kinase screen (BI); assay type: protein-complex assay; details: Compound concentration 1.0 uM
[12] = biological target: RAC-alpha serine/threonine-protein kinase (Homo sapiens) (UniProt P31749)
[13] = biological target: Protein-tyrosine kinase 6 (Homo sapiens) (UniProt Q13882); details: Compound concentration 1.0 uM
[14] = biological target: G protein-coupled receptor kinase 6 (Homo sapiens) (UniProt P43250); details: Compound concentration 1.0 uM
[15] = biological target: Serine/threonine-protein kinase VRK2 (Homo sapiens) (UniProt Q86Y07); details: Compound concentration 1.0 uM
[16] = biological target: AP2-associated protein kinase 1 (Homo sapiens, UniProt Q2M2I8); test: Dose response measurement (AAK1)
[17] = biological target: Ribosomal protein S6 kinase alpha-2 (Homo sapiens) (UniProt Q15349); details: Compound concentration 1.0 uM
[18] = biological target: Mitogen-activated protein kinase 14 (Homo sapiens) (UniProt Q16539); test: SAPK2AP38 DUNDEE kinase screen (BI); details: Compound concentration 10.0 uM
[19] = biological target: Protein kinase C eta type (Homo sapiens) (UniProt P24723); details: Compound concentration 1.0 uM
[20] = biological target: 3-hydroxy-3-methylglutaryl-coenzyme A reductase (Rattus norvegicus) (UniProt P51639); test: HMGCOARED Eurofins SafetyScreen44 (BI); details: Compound concentration 10.0 uM
[21] = biological target: Tyrosine-protein kinase JAK3 (Homo sapiens) (UniProt P52333)
[22] = biological target: Serine/threonine-protein kinase Nek2 (Homo sapiens) (UniProt P51955); details: Compound concentration 1.0 uM
[23] = biological target: Tyrosine-protein kinase JAK2 (Homo sapiens) (UniProt O60674); details: Compound concentration 1.0 uM
[24] = biological target: Cyclin-dependent kinase 5 (Homo sapiens) (UniProt Q00535); test: CDK5 (INACTIVE) Invitrogen Lab (UK) kinase screen (BI); details: Compound concentration 1.0 uM
[25] = biological target: Phosphorylase b kinase gamma catalytic chain, testis/liver isoform (Homo sapiens) (UniProt P15735)
[26] = biological target: AMPK alpha1/beta1/gamma2 (Homo sapiens) (UniProt Q9UGJ0+Q9Y478+Q13131); details: Compound concentration 1.0 uM
[27] = biological target: Serine/threonine-protein kinase 26 (Homo sapiens) (UniProt Q9P289); details: Compound concentration 1.0 uM
[28] = biological target: Ankyrin repeat and protein kinase domain-containing protein 1 (Homo sapiens) (UniProt Q8NFD2); details: Compound concentration 1.0 uM
[29] = biological target: Histamine H1 receptor (Homo sapiens) (UniProt P35367); details: Compound concentration 10.0 uM
[30] = biological target: Inactive tyrosine-protein kinase PEAK1 (Homo sapiens) (UniProt Q9H792); details: Compound concentration 1.0 uM
[31] = biological target: Mitogen-activated protein kinase 8 (Homo sapiens) (UniProt P45983)
[32] = biological target: Mitogen-activated protein kinase 9 (Homo sapiens) (UniProt P45984); details: Compound concentration 1.0 uM
[33] = biological target: 5-hydroxytryptamine receptor 3A (Homo sapiens) (UniProt P46098); details: Compound concentration 10.0 uM
[34] = biological target: T1, Serine/threonine-protein kinase Chk1 (Homo sapiens)
[35] = biological target: Casein kinase I isoform alpha-like (Homo sapiens) (UniProt Q8N752); test: CSNK1A1L Invitrogen Lab (UK) kinase screen (BI); details: Compound concentration 1.0 uM
[36] = biological target: Serine/threonine-protein kinase tousled-like 2 (Homo sapiens) (UniProt Q86UE8); details: Compound concentration 1.0 uM

Sequence of Phosphorylase b kinase gamma catalytic chain, testis/liver isoform (Homo sapiens) (P15735 whole entry, looked up, canonical isoform): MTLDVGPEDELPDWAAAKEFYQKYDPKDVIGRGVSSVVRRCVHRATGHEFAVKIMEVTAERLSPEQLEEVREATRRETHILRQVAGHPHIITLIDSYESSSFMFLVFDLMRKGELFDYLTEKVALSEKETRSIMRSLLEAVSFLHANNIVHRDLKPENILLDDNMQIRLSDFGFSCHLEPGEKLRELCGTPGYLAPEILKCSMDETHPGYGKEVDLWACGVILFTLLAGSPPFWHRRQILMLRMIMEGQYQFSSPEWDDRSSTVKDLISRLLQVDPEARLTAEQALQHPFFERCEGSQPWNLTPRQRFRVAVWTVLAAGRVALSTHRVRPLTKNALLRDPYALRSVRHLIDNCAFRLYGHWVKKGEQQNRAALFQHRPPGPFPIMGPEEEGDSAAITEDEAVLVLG
Sequence of Tyrosine-protein kinase JAK3 (Homo sapiens) (P52333 whole entry): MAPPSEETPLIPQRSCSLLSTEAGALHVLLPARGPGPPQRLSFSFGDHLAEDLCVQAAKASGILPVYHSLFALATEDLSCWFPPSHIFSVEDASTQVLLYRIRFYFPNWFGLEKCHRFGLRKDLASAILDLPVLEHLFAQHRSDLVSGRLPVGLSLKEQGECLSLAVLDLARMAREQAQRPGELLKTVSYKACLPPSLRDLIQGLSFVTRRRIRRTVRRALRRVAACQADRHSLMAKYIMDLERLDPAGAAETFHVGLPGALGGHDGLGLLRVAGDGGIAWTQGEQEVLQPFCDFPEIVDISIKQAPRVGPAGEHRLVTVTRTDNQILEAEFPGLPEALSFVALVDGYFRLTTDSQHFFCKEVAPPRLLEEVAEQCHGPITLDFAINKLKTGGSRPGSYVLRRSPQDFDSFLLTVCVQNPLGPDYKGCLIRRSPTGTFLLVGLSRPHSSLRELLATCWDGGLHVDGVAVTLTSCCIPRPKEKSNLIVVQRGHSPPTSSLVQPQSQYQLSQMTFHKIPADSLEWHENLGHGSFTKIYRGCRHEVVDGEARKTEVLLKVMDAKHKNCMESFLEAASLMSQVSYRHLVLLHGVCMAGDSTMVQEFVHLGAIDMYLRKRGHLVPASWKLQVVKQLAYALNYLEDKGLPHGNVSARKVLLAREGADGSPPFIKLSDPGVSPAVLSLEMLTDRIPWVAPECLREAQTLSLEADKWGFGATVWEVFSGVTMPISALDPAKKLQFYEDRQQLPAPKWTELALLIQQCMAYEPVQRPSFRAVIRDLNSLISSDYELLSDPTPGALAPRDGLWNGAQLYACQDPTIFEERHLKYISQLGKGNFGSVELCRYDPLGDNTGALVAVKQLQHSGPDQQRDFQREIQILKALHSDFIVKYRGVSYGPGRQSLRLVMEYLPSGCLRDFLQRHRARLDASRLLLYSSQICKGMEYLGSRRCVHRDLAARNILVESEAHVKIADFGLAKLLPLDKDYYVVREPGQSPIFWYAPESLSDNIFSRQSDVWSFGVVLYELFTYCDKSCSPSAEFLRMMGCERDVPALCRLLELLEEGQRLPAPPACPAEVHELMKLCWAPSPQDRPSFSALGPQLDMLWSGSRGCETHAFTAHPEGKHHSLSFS
Sequence of Tyrosine-protein kinase Lck (Homo sapiens) (P06239 2-509 limits assumed): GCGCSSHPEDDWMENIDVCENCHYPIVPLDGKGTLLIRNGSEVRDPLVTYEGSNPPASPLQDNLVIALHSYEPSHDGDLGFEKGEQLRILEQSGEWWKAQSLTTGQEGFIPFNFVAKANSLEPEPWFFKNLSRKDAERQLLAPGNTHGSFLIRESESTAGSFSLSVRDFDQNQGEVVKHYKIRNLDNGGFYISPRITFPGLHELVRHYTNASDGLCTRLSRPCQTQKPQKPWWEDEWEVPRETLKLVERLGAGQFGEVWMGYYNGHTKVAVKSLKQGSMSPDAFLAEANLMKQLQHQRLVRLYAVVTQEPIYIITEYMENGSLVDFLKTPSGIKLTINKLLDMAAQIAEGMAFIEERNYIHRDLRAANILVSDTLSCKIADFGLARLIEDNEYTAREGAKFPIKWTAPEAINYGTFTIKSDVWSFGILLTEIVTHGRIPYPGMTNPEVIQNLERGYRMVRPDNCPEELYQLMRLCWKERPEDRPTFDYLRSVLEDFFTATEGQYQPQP
Sequence of Mitogen-activated protein kinase 8 (Homo sapiens) (P45983 whole entry): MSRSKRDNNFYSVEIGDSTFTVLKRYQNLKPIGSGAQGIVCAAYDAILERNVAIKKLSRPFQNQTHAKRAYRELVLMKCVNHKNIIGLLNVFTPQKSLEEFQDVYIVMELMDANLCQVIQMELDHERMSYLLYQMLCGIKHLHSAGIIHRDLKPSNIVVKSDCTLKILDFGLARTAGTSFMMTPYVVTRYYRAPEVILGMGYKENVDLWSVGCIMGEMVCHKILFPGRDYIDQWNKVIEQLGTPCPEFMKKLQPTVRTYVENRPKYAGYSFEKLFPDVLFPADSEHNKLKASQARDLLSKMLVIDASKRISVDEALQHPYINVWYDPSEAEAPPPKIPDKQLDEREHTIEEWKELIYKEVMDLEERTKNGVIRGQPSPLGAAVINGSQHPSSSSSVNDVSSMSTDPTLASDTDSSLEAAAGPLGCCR
Sequence of Insulin receptor (Homo sapiens) (P06213 28-758 limits assumed): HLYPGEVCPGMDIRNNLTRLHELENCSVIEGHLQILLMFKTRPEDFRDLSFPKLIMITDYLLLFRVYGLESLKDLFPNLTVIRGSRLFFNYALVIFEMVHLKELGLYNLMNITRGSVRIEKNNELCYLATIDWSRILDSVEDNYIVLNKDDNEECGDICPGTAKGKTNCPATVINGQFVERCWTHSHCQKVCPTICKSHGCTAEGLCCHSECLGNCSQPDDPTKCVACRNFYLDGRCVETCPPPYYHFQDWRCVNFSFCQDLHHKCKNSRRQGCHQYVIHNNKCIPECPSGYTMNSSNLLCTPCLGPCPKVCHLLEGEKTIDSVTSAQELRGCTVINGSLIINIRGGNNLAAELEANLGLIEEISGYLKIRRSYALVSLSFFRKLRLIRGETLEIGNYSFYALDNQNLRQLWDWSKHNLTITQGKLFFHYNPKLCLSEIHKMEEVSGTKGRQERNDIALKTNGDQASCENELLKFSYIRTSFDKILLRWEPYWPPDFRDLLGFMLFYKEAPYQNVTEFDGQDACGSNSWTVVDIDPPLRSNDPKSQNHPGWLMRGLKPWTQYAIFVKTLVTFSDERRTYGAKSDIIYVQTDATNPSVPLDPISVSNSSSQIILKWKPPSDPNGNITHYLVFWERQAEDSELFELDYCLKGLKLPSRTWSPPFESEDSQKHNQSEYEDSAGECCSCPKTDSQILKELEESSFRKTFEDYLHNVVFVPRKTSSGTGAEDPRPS
Sequence of Insulin receptor (Homo sapiens) (P06213 763-1382 limits assumed): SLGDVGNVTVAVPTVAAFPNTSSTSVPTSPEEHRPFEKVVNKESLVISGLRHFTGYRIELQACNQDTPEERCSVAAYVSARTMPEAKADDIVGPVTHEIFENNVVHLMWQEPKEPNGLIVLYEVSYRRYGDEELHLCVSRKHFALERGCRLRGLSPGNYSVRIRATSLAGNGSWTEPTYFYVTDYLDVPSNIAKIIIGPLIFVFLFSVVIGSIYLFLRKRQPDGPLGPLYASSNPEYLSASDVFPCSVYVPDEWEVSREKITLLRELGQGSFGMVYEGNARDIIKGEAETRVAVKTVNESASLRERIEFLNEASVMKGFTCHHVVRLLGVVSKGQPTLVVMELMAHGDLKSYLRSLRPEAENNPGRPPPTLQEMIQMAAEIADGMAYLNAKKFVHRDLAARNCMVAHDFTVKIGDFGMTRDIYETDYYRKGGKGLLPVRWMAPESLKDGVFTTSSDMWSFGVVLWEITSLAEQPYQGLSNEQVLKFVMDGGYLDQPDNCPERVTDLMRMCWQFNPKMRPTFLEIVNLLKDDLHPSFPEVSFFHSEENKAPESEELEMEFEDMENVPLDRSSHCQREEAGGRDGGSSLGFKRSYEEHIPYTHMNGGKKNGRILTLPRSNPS
Sequence of RAC-alpha serine/threonine-protein kinase (Homo sapiens) (P31749 whole entry): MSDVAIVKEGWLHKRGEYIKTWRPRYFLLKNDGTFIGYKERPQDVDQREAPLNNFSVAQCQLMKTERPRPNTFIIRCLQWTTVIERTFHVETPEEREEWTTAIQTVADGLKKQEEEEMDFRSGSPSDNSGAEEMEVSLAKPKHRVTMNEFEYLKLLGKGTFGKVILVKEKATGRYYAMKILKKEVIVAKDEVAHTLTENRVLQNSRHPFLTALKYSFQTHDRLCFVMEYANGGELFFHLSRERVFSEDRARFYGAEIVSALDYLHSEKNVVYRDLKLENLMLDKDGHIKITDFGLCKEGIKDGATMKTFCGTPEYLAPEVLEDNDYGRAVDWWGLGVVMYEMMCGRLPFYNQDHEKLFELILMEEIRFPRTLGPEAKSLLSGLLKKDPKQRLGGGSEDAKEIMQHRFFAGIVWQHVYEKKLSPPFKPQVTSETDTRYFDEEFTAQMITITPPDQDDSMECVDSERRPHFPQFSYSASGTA
Sequence of G protein-coupled receptor kinase 6 (Homo sapiens) (P43250 whole entry, looked up): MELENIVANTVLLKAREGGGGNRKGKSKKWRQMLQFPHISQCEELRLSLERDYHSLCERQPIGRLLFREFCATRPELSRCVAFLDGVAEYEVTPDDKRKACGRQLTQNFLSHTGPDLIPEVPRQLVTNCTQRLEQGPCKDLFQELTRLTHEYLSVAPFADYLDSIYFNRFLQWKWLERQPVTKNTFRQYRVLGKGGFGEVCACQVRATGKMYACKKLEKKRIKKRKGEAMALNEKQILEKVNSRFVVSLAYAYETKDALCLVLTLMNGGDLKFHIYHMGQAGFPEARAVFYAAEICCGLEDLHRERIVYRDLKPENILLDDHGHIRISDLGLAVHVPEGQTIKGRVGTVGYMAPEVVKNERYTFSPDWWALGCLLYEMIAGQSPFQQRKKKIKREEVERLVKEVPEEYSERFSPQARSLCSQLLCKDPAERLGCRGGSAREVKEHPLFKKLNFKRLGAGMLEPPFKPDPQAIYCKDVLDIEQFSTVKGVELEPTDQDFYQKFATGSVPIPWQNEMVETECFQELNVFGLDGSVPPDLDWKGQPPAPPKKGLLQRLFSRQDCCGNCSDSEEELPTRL

CCC(F)(F)c1cc(N2CCC(S(C)(=O)=O)CC2)nc2sc(C(N)=O)c(N)c12 [BI-605906]
residual activity [1]: 96%
residual activity [2]: 101%
residual activity [3]: 46.4%
residual activity [4]: 84%
residual activity [5]: 88%
residual activity ([6]; Compound concentration 1.0 uM): 94%
residual activity ([6]; Compound concentration 10.0 uM): 93%
residual activity ([7]; Compound concentration 1.0 uM): 68%
residual activity ([7]; Compound concentration 10.0 uM): 67%
residual activity ([8]; Compound concentration 1.0 uM): 95%
residual activity ([8]; Compound concentration 10.0 uM): 99%
residual activity [9]: 100%
residual activity [10]: 90.2%
residual activity [11]: 81%
residual activity ([12]; Compound concentration 1.0 uM): 99%
residual activity ([12]; Compound concentration 10.0 uM): 96%
residual activity [13]: 98%
residual activity [14]: 93%
residual activity [15]: 82%
IC50 [16]: 272 nM
residual activity [17]: 96%
residual activity [18]: 85.3%
residual activity [19]: 100%
residual activity [20]: 85%
residual activity ([21]; Compound concentration 1.0 uM): 92%
residual activity ([21]; Compound concentration 10.0 uM): 95%
residual activity [22]: 93%
residual activity [23]: 94%
residual activity [24]: 83%
residual activity ([25]; Compound concentration 1.0 uM): 99%
residual activity ([25]; Compound concentration 10.0 uM): 97%
residual activity [26]: 89%
residual activity [27]: 109%
residual activity [28]: 95%
residual activity [29]: 95%
residual activity [30]: 94%
residual activity ([31]; Compound concentration 1.0 uM): 91%
residual activity ([31]; Compound concentration 10.0 uM): 100%
residual activity [32]: 98%
inhibition [33]: -5.46%
residual activity ([34]; Compound concentration 1.0 uM): 95%
residual activity ([34]; Compound concentration 10.0 uM): 89%
residual activity [35]: 84%
residual activity [36]: 98%
